Assays:
Genome polyprotein [1] = target: Genome polyprotein (Hu/NV/NV/1968/US, UniProt Q83883); test: Fret Assay
Experimental: (§1) The ability of these compounds to inhibit the NoV, specifically Minerva virus protease catalytic Cys139 covalently (IC50 and Ki) was determined with an enzyme kinetic assay. NoV strains, specifically GII.4 such as the Minerva virus are responsible for causing the majority (80%) of infections in humans. The activity of the inhibitors was evaluated by monitoring the cleavage of a FRET substrate every one minute for 20 minutes (excitation/emission: 488/520 nm) using a SpectraMax M5 microplate reader (Molecular Devices, Sunnyvale CA). Serial dilutions of each inhibitor were incubated with enzyme for 90 minutes at 37° C. before addition of the FRET substrate to ensure complete inactivation. Commercially available protease inhibitors chymostatin and rupintrivir were used as controls.

Genome polyprotein [2] = target: Genome polyprotein (Norovirus Hu/GII.P4_GII.4/Minerva/2006/USA, UniProt A0A0K2E2J2); test: Fret Assay
Sequence of Genome polyprotein (Norovirus Hu/GII.P4_GII.4/Minerva/2006/USA, UniProt A0A0K2E2J2) (A0A0K2E2J2 whole entry): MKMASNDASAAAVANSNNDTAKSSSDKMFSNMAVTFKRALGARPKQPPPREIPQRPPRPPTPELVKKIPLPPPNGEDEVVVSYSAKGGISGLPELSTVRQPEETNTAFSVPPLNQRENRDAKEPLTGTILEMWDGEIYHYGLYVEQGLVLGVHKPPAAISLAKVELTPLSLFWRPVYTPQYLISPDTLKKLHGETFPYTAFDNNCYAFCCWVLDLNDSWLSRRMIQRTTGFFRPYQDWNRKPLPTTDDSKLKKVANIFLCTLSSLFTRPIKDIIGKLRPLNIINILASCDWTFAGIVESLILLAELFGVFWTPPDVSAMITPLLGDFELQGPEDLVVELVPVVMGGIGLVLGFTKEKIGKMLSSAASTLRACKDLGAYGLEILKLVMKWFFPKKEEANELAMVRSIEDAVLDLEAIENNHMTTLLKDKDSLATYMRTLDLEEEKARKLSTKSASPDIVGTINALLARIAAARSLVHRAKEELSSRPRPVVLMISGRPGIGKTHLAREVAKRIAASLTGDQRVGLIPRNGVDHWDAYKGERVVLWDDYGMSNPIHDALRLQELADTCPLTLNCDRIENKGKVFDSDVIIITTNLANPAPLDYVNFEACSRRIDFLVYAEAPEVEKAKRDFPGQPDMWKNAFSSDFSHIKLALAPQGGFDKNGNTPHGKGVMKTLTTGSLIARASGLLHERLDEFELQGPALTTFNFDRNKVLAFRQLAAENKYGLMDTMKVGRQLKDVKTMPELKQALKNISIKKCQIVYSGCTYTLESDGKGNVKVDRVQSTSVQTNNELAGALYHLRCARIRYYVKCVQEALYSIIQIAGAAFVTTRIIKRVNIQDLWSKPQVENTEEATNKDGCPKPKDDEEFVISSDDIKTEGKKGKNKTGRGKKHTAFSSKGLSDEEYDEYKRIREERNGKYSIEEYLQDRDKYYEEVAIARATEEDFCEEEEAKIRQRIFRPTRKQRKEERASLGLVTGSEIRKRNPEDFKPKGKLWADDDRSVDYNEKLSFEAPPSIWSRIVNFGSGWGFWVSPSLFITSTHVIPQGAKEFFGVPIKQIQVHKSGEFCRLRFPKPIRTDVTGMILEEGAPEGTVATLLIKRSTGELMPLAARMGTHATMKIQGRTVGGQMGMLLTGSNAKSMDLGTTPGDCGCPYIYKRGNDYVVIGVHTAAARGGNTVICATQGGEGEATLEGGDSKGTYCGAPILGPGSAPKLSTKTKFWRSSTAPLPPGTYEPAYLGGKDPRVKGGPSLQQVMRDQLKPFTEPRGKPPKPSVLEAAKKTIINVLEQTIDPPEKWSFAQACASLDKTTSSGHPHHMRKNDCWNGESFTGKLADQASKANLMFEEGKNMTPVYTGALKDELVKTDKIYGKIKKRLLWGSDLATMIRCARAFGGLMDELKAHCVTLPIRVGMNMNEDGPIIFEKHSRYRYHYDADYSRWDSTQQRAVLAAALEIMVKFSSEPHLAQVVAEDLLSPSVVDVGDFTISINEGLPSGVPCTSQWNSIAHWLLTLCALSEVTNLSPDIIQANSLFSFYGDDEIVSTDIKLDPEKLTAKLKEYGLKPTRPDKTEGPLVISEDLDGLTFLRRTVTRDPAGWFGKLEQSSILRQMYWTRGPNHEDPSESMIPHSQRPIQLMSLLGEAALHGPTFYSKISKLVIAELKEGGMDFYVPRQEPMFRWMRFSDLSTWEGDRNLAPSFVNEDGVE
Experimental: as §1

Sequence of Genome polyprotein (Hu/NV/NV/1968/US, UniProt Q83883) (Q83883 whole entry): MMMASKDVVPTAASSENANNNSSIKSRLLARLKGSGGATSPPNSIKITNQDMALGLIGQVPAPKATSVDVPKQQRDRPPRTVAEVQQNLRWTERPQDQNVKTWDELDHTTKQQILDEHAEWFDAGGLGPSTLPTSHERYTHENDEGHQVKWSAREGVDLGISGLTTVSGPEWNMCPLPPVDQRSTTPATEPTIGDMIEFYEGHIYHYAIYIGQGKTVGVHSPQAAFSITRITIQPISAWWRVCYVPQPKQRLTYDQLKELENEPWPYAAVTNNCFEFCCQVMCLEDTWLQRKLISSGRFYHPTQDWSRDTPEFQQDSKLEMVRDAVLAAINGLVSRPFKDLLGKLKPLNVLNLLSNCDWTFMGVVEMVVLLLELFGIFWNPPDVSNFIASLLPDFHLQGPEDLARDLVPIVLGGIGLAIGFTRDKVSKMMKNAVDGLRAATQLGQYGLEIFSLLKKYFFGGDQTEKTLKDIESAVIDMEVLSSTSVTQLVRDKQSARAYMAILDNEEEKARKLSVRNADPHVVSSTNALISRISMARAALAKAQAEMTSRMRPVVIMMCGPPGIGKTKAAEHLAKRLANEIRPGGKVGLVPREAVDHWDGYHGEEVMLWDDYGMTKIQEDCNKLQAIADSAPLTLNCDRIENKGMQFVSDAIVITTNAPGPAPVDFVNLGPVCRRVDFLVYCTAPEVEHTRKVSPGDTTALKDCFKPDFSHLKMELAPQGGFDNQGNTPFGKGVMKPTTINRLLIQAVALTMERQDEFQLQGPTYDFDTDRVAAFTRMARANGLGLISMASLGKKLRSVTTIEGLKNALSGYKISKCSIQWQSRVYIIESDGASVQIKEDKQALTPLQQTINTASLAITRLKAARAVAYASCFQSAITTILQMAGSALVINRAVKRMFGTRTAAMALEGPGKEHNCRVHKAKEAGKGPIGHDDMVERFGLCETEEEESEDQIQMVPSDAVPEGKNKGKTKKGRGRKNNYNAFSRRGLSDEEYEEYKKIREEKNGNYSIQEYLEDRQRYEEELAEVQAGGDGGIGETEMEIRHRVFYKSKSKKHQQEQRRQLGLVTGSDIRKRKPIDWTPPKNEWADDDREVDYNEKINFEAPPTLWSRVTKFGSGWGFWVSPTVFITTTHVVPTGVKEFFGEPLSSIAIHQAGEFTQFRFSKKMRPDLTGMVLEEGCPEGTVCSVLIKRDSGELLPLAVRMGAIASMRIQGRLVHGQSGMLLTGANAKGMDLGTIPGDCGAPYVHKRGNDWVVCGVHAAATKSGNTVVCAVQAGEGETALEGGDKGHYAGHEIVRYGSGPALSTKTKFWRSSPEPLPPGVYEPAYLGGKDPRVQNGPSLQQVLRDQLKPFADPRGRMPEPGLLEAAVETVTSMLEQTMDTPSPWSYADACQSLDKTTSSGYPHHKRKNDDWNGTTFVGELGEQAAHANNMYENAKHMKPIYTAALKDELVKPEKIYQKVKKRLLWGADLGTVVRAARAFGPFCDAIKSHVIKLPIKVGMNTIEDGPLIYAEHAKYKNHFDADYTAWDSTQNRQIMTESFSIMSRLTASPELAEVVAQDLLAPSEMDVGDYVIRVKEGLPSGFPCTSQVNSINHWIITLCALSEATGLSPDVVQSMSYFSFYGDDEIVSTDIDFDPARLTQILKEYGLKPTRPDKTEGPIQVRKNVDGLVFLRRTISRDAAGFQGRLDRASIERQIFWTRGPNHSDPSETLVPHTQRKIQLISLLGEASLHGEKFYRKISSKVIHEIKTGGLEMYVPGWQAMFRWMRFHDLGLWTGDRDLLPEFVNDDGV

| Compound | IC50 (Genome polyprotein [1]) [nM] | Ki (Genome polyprotein [1]) [nM] | Ki (Genome polyprotein [2]) [nM] | IC50 (Genome polyprotein [2]) [nM] |
| --- | --- | --- | --- | --- |
| CC(C)C[C@H](NC(=O)[C@H](Cc1ccc(O)cc1)NC(=O)OCc1ccccc1)C(=O)N[C@H](C=O)C[C@@H]1CCCNC1=O [US11859014, Compound 11] | 44 | 123 | 427 |  |
| CC(C)C[C@H](NC(=O)[C@H](Cc1cccc2ccccc12)NC(=O)OCc1ccccc1)C(=O)N[C@H](C=O)C[C@@H]1CCCNC1=O [US11859014, Compound 19] | 80 | 155 | 1190 |  |
| CC(C)C[C@H](NC(=O)[C@H](Cc1cccc2ccccc12)NC(=O)c1cnccn1)C(=O)N[C@H](C=O)C[C@@H]1CCCNC1=O [US11859014, Compound 23] | 96 | 528 |  | 204 |
| CC(C)C[C@H](NC(=O)[C@H](Cc1cccc2ccccc12)NC(=O)c1cnccn1)C(=O)N[C@H](C=O)C[C@@H]1CCNC1=O [US11859014, Compound 29] | 112 | 350 | 670 |  |
| CC(C)C[C@H](NC(=O)[C@H](Cc1ccc(F)cc1)NC(=O)OCc1ccccc1)C(=O)N[C@H](C=O)C[C@@H]1CCCNC1=O [US11859014, Compound 35] |  |  | 858 | 167 |
| CC(C)C[C@H](NC(=O)[C@H](Cc1cccc2ccccc12)NC(=O)OCc1ccccc1)C(=O)N[C@H](/C=C(\C#N)C(N)=O)C[C@@H]1CCCNC1=O [US11859014, Compound 36] |  |  | 3600 |  |
| O=C[C@H](C[C@@H]1CCCNC1=O)NC(=O)[C@H](Cc1ccccc1)NC(=O)[C@H](Cc1cccc2ccccc12)NC(=O)OCc1ccccc1 [US11859014, Compound 83] |  |  |  | 482 |
| CCOC(=O)/C=C/[C@H](C[C@@H]1CCNC1=O)NC(=O)[C@@H](CC(=O)[C@@H](NC(=O)c1cc(C)on1)C(C)C)Cc1ccc(F)cc1 [US11859014, Compound rupintrivir] |  |  | 8200 | 23600 |
